One data set concerns MCF-7 tumor cells. Description: Mode of cell death: time lapse phase contrast microscopy and multiparametric HCS (Arrayscan II). Format: cell-based. The protocol: Multiparametric high content screening assays. To study the cell death characteristics a multi-parametric high content screening (HCS) assay was used (Cellomics cytotoxicity HitKit™) and an HCS assay for measurement of apoptosis, which has been described in detail previously (Lovborg et al., 2004). The cells (1500 cells/well) were seeded into flat-bottomed 96-well plates (Perkin Elmer Inc., Wellesley, Mass.) and were left to attach before addition of drugs. For the cytotoxicity assay the cytotoxicity HitKit™ reagents (Cellomics Inc., Pittsburgh, Pa., USA) was used according to the manufacturer's instructions. Multi-parameter cytotoxicity HitKit™ contains a nuclear dye, a cell permeability dye, and a lysosomal mass/pH indicator. In the apoptosis assay FAM-DEVD-FMK (part of the CaspaTag Kit, Chemicon, Temecula, Calif.) at a final concentration of 20 μM was added one hour before the end of the drug exposure to stain activated caspase-3 and partly caspase-7. The staining solution was removed and the plates were washed twice with PBS followed by a 30 min fixation in 3.7% formaldehyde and nuclear staining with 10 μM Hoechst 33342 (Sigma). Plates were then washed twice. The plates were centrifuged before each aspiration to avoid loss of cells detached due to toxic stimuli. Processed plates were kept at +4° C. for up to 24 h before analysis. Plates were analyzed using the ArrayScan™ HCS software (Cellomics Inc). The system is a computerized automated fluorescence-imaging microscope that automatically identifies stained cells and reports the intensity and distribution of fluorescence in individual cells. Images were acquired for each fluorescence channel, using suitable filters with 20× objective. In each well at least 800 cells were analyzed. Images and data were stored in a Microsoft SQL database.
Phase contrast microscopy. Time lapse phase contrast microscopy was performed using an automated Incucyte phase contrast microscope. MCF-7 cells (10,000/well) were plated on 24-well ImageLock plates (Essen Instruments, Ann Arbor, Mich.) and cultured in RPMI 1640 media containing 10% fetal bovine serum and antibiotics. The plates were immediately placed into IncuCyte imaging system (Essen Instruments). The chamber is designed to fit into a standard, humidified, CO2 incubator in an atmosphere of 5% CO2, and a moving objective allows the cell culture to be stationary while images are captured at different positions from well to well. Images were collected at hourly intervals starting 30 minutes after addition of the plate to the IncuCyte-FLR chamber. Drug treatment was performed 24 hours after the plates were placed in the Incucyte. Cell density was calculated using the Incucyte software. […]

The test system of data set [1] is hollow fiber cultures of PHTC from ovarian carcinoma patients. Kind of data set: In vivo hollow fiber assay, PHTC ovarian carcinoma. Further details: species or system human. The settings on record: two PHTC cultures in fibers s.c. in NMRI male mice, single dose 760 μg/mouse s.c., 6 days; P<0.05 and P<0.01. The procedure: (§1) In vivo studies. Cells from two ovarian carcinoma patients and the cell line CEM were cultured inside semi-permeable polyvinylidene fluoride fibers and assessed by the hollow fiber assay (Friberg et al., 2005; Jonsson et al., 2000). The fibers were implanted subcutaneously into NMRI male mice (Scanbur, Sollentuna Sweden), which were treated with a single dose (0.76 mg/mouse) of VLX50 subcutaneously, or vehicle only (n=animals/group). Fibers were retrieved after 6 days and cell density evaluated (FIG. 3a) using the MTT (3-[4,5-dimethylthiazol-2-yl]-2,5-diphenyltetrazolium bromide)-assay (Alley et al. 1988). The method is based on the conversion of MTT to blue formazan crystals by living cells. The formazan was extracted by DMSO as previously described (Jonsson et al. 2000), and optical density (OD) read at 570 nm. Cell density for each fiber on retrieval day was expressed as net growth, defined as (OD retrieval day—OD implantation day)/OD implantation day, i.e. the percent change in cell density in the fibers during the 6 days of in vivo experiment. The animals were observed regarding behavior and weight gain throughout the experiment. Blood samples (200 μl) were obtained through the orbital plexus after anesthetization with isofluran just before euthanasia, and analyzed for hematological parameters. […]

The next data set concerns ROS formation. Description: ROS formation. Conditions: in contrast to triapine.
The test system of data set [2] is BNIP and Ndrg-1 expression. Description: Gene expression analysis of drug treated tumor cell cultures. Format: cell-based. The settings on record: HIF1 alfa dependent genes. The procedure:
Mechanism of action. Mechanistic exploration was performed using gene expression analysis of drug treated tumor cell cultures to generate a drug specific signature. The breast cancer cell line MCF-7 was treated with VLX50 or vehicle (DMSO) and analyzed for gene expression using the Affymetrix U1300plus chip. […] This query signature was subsequently submitted to the GSEA and the Connectivity map databases and strong connections to hypoxia inducible factor (HIF1 alfa) and iron chelators were retrieved. […] The mechanism was confirmed by direct measurements of drug induced decrease in intracellular iron concentration (FIG. 6b).

The subject of the next data set is CCRF-CEM cell line. Description: In vivo hollow fiber assay, CCRF-CEM. Conditions: CCRF-CEM in fibers s.c. in NMRI male mice, single dose 760 μg/mouse s.c., 6 days; P>0.05. The procedure: as §1

As for `COCCCNC(=S)N/N=C\c1ccccn1` [VLX50, N1-(3-methoxypropyl)-2-(pyridylmethylidene)-hydrazine-1-carbothioamide], in the data set with MCF-7 tumor cells (MCF-7, 48-72 h), the Caspase-3 activity result is recorded as “increase”, the Cell density entry was “gradual decrease” and the DNA fragmentation entry was “increase”. Moreover, the “Effect on growth and viability” value in the data set with MCF-7 tumor cells (MCF-7, 24 h) was “little or no effect”. Besides, in data set [1], the “Growth inhibition (net growth) compared to vehicle” value is listed as “significant growth inhibition”. In the data set with ROS formation, the ROS formation result is on record as “does not appear to induce ROS formation”. Further, the “Expression of BNIP and Ndrg-1” value in data set [2] is “significantly increasing”. In addition, the “Difference in net growth between treated group and control group” value with CCRF-CEM cell line is on record as “did not reach statistical significance”.

Source of the values: patent publication US20120309798A1, “Tumour Treatment Agents and Method” (Vivolux AB, priority 2009, published 2012).
